US8034804B2 (N.V. Organon, priority 2001, dated 2011)

How the values were obtained:
AMPA receptor = assay: Patch clamp whole cell electrophysiology: glutamate-evoked steady state current in cultured hippocampal neurons; format: cell-based; settings: 10 μM compound in extracellular solution; 0.5 mM glutamate; rat hippocampal neurons voltage clamped at −60 mV
From the text: The (pyrido/thieno)-[f]-oxazepin-5-one derivatives of the invention are AMPA receptor positive modulators, as can be determined by an increase in steady state current induced by application of glutamate in a conventional whole cell patch clamp method when a (pyrido/thieno)-[f]-oxazepin-5-one of the invention is present (see Example 10 and Table I). The compounds may be used in the treatment of neurological and psychiatric diseases where an enhancement of synaptic responses mediated by AMPA receptors is required, such as neurodegenerative disorders, cognitive or memory dysfunction, memory and learning disorders such as can result from ageing, attention disorder, trauma, stroke, epilepsy, Alzheimer's disease, depression, schizophrenia, psychotic disorders, sexual dysfunctions, autism, or a disorder or disease resulting from neurotic agents or substance abuse, and alcohol intoxication.
Hippocampal neuronal cultures were prepared from embryonic or 1-3 day old Sprague-Dawley rats which were decapitated and the heads immediately placed in ice cold HBS (HEPES Buffered Solution: 130 mM NaCl, 5.4 mM KCl, 10 mM HEPES, 1.0 mM MgCl2, 1.8 CaCl2, 25 mM glucose, adjusted to pH 7.4). The whole brain was excised and placed on pre-sterilised filter paper, soaked in HBS and the cerebellum was removed. The brain was chopped and an enzyme solution (0.5 mg/ml protease X and 0.5 mg/ml protease in HBS) was added and subsequently left for 40 minutes at room temperature to digest before trituration. Cells were resuspended and then counted to give a final concentration of 1.5×10^6 per ml. Cells were aliquoted onto poly-D-lysine- and Matrigel®-treated coverslips and left to incubate at 37° C. for 1-2 hours. When incubation was complete, 1 ml of growth medium was added to each well containing a coverslip and the cells were returned to the incubator. After 3-5 days the mitotic inhibitor cytosine arabinoside (5 μM) was added and the cells returned to the incubator until required.
The whole cell configuration of the patch clamp technique (Hamill et al., Pflügers Arch. 1981, 39, 85-100) was used to measure glutamate-evoked currents from postnatal hippocampal neurons maintained in culture for 4-7 days. A glass coverslip containing the culture was transferred to the recording chamber (Warner Instrument Corp., Hamden, Conn.) mounted on the stage of an inverted microscope (Nikon, Kingston, UK). The recording chamber contained 1-2 ml extracellular solution (145 mM NaCl, 5.4 mM KCl, 10 mM HEPES, 0.8 mM MgCl2, 1.8 CaCl2, 10 mM glucose and 30 mM sucrose, adjusted to pH 7.4 with 1 M NaOH) and was constantly perfused at a rate of 1 ml/min. Recordings were performed at room temperature (20-22° C.) using an Axopatch 200B amplifier (Axon Instruments Ltd., Foster City, Calif.). Data acquisition and analysis was performed using Signal software (Cambridge Electronic Design Ltd., Cambridge, UK). Pipettes were manufactured from GC120F-10 glass (Harvard Apparatus, Edenbridge UK) using a model P-87 electrode puller (Sutter Instruments Co., Novarto, Calif.). The patch electrodes had typical resistances of between 3-5 MΩ when filled with intracellular solution (140 mM potassium gluconate, 20 mM HEPES, 1.1 mM EGTA, 5 mM phosphocreatine, 3 mM ATP, 0.3 mM GTP, 0.1 mM CaCl2, 5 mM MgCl2, adjusted to pH 7.4 with 1 M KOH).
Cells were voltage clamped at a holding potential of −60 mV and glutamate (0.5 mM) was applied using a 12 channel semi-rapid drug application device (DAD-12. Digitimer Ltd., Welwyn Garden city, UK). The agonist glutamate was applied for 1 s every 30 s. […] Between applications saline flowed to clear any dead volume in the system. For each application steady-state currents were plotted from the difference in baseline and steady state current and averaged over 300 ms.
Two solutions of the compound in extracellular solution were made up, one with glutamate and one without. […]

Rats = assay: Differential reinforcement of low rates of responding, 72 seconds (DRL72); format: in vivo, rat; settings: intraperitoneal route 30 minutes before 60 minute test session
Protocol: Rats are pretrained in a standard operant chamber to perform a DRL72 procedure according to Andrews et al (Andrews J S, Jansen J H M, Linders S, Princen A, Drinkenburg WHIM, Coenders C J H and Vossen J H M (1994). Effects of imipramine and mirtazapine on operant performance in rats. Drug Development Research, 32, 58-66). The test session lasts for 60 minutes with no limit to the number of trials. Each trial begins with the stimulus light on above the active lever. A response on the lever only results in delivery of a pellet if 72 seconds has elapsed. A response on the lever before 72 seconds has elapsed resets the timer and is not rewarded. The number of pellets earned and the number of lever presses is recorded and used to calculate an efficiency score. Test compounds are administered via the intraperitoneal route 30 minutes before the start of the test session. Antidepressants increase the number of pellets earned and decrease the number of lever presses.

Mice = assay: Inhibition of amphetamine-induced hyperlocomotion; format: in vivo, mouse; settings: drug sc 30 minutes before 1.5 mg/kg d-amphetamine sulphate sc, locomotor activity measured for 60 minutes
Protocol: Mice were injected sc with drug treatment or vehicle control. 30 Minutes later mice were injected sc with 1.5 mg/kg d-amphetamine sulphate or saline and immediately placed in infra red locomotor boxes where locomotor activity (long duration beam breaks of two adjacent beams) and stereotypic behaviour (repetitive short-duration beam breaks) were measured for a period of 60 minutes. The experiment was analysed using a 3-Way ANOVA with experimental session, infra red locomotor boxes and treatment as factors, and in the case of treatment, significant effects were followed up using a Tukey (HSD) test.

Compound: O=C1c2ccc(Cl)nc2OC[C@H]2CCCN12 [Example 4B, (R)-8-Chloro-2,3,11,11a-tetrahydro-1H,5H-pyrrolo[2,1-c]pyrido[3,2-f][1,4]oxazepine-5-one]
- % Increase in steady state current at 10 μM (AMPA receptor): 29%

Compound: (S)-2,3,11,11a-tetrahydro-1H,5H-pyrrolo[2,1-c]pyrido[3,2-f][1,4]oxazepine-5-one
- % Increase in steady state current at 10 μM (AMPA receptor): 22%
- DRL72 operant performance (pellets earned, lever presses): antidepressant like profile (Rats): antidepressant like profile
- Inhibition of amphetamine induced hyperlocomotion (Mice): inhibited amphetamine induced hyperlocomotion

Compound: O=C1c2ccc(C(F)(F)F)nc2OC[C@@H]2CCCN12 [Example 2B, (S)-8-trifluoromethyl-2,3,11,11a-tetrahydro-1H,5H-pyrrolo[2,1-c]pyrido[3,2-f][1,4]-oxazepine-5-one]
- % Increase in steady state current at 10 μM (AMPA receptor): 21%

Compound: O=C1c2sccc2OC[C@@H]2CCCN12 [Example 1]
- % Increase in steady state current at 10 μM (AMPA receptor): 32%
- Inhibition of amphetamine induced hyperlocomotion (Mice): inhibited amphetamine induced hyperlocomotion

Compound: O=C1c2ccc(C(F)(F)F)nc2OC[C@H]2CCCN12 [Example 2C, (R)-8-trifluoromethyl-2,3,11,11a-tetrahydro-1H,5H-pyrrolo[2,1-c]pyrido[3,2-f][1,4]-oxazepine-5-one]
- % Increase in steady state current at 10 μM (AMPA receptor): 19%

Compound: O=C1c2cc(Cl)sc2OC[C@@H]2CCCN12 [Example 5, (S)-7-Chloro-2,3,10,10a-tetrahydro-1H,5H-pyrrolo[2,1-c]thieno[3,2-f][1,4]oxazepine-5-one]
- % Increase in steady state current at 10 μM (AMPA receptor): 16%

Compound: (+)-6,6a,7,8,9,10-hexahydro-12H-pyrido[2,1-c]pyrido[3,2-f][1,4]oxazepine-12-one [Example 4D]
- % Increase in steady state current at 10 μM (AMPA receptor): 13%

Compound: (S)-8-Methoxy-2,3,11,11a-tetrahydro-1H,5H-pyrrolo[2,1-c]Pyrido[3,2-f][1,4]oxazepine-5-one [Example 7]
- % Increase in steady state current at 10 μM (AMPA receptor): 22%

Compound: O=C1c2ccc(Cl)nc2OC[C@@H]2CCCN12 [Example 4A, (S)-8-Chloro-2,3,11,11a-tetrahydro-1H,5H-pyrrolo[2,1-c]pyrido[3,2-f][1,4]oxazepine-5-one]
- % Increase in steady state current at 10 μM (AMPA receptor): 16%

Compound: O=C1c2cc(Cl)sc2OC[C@H]2CCCN12 [Example 6A, (R)-7-Chloro-2,3,10,10a-tetrahydro-1H,5H-pyrrolo[2,1-c]thieno[3,2-f][1,4]oxazepine-5-one]
- % Increase in steady state current at 10 μM (AMPA receptor): 20%

Compound: Cc1ccc2c(n1)OCC1CCCN1C2=O.Cl [Example 3, (S)-8-Methyl-2,3,11,11a-tetrahydro-1H,5H-pyrrolo[2,1-c]pyrido[3,2-f][1,4]oxazepine-5-one Hydrochloride Salt]
- % Increase in steady state current at 10 μM (AMPA receptor): 12%
